According to PMC6386942, “Bisoprolol, Known to Be a Selective β1-Receptor Antagonist, Differentially but Directly Suppresses IK(M) and IK(erg) in Pituitary Cells and Hippocampal Neurons” (International Journal of Molecular Sciences, 2019):

How the values were obtained:
[1] = biological target: T1, M-type K+ (KM) channel, KCNQ2 (KV7.2)/KCNQ3 (KV7.3) (Rattus norvegicus, UniProt O88943+O88944); experiment: whole-cell patch clamp of native IK(M), plus cell-attached single KM channel recordings in GH3 cells; assay type: cell-based
T1 construct: native channel in pituitary GH3 cells; with KCNQ3 (KV7.3)

[2] = biological target: T2, erg-mediated K+ channel (Kerg, KV11) (Rattus norvegicus, UniProt O08962); experiment: whole-cell patch clamp of native IK(erg) in GH3 cells; assay type: cell-based
T2 construct: gene Kcnh2; native channel in pituitary GH3 cells
T2 sequence (O08962 1-1163): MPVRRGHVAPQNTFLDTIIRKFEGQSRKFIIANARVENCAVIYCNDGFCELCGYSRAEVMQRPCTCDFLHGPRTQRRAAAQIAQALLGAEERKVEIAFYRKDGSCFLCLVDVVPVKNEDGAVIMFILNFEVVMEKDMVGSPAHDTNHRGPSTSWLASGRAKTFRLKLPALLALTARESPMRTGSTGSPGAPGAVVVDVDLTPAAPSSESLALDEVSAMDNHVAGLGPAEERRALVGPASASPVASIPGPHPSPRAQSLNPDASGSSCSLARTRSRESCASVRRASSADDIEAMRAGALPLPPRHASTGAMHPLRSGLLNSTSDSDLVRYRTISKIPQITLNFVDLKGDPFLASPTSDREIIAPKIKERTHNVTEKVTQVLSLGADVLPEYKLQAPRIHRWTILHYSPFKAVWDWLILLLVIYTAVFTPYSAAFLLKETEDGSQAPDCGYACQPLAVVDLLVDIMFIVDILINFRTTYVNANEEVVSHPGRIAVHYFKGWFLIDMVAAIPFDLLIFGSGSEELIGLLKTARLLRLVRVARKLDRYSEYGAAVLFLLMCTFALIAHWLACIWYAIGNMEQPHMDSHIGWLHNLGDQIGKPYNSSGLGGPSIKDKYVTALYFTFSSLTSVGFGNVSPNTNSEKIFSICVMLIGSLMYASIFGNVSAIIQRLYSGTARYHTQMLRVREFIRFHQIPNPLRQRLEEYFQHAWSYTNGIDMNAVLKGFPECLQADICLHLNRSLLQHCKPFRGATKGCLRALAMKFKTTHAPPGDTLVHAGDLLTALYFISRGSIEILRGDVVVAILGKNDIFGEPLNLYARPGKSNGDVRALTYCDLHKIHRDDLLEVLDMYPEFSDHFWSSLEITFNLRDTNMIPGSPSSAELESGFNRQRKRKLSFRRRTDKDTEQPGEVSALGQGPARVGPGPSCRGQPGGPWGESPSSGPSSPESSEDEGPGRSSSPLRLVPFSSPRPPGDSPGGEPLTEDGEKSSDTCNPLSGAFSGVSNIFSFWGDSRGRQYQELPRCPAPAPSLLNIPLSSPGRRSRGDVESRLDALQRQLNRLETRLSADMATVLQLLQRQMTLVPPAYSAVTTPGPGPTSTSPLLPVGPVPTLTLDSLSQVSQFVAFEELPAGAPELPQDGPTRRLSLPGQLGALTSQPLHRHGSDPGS

T1 sequence (O88943 whole entry): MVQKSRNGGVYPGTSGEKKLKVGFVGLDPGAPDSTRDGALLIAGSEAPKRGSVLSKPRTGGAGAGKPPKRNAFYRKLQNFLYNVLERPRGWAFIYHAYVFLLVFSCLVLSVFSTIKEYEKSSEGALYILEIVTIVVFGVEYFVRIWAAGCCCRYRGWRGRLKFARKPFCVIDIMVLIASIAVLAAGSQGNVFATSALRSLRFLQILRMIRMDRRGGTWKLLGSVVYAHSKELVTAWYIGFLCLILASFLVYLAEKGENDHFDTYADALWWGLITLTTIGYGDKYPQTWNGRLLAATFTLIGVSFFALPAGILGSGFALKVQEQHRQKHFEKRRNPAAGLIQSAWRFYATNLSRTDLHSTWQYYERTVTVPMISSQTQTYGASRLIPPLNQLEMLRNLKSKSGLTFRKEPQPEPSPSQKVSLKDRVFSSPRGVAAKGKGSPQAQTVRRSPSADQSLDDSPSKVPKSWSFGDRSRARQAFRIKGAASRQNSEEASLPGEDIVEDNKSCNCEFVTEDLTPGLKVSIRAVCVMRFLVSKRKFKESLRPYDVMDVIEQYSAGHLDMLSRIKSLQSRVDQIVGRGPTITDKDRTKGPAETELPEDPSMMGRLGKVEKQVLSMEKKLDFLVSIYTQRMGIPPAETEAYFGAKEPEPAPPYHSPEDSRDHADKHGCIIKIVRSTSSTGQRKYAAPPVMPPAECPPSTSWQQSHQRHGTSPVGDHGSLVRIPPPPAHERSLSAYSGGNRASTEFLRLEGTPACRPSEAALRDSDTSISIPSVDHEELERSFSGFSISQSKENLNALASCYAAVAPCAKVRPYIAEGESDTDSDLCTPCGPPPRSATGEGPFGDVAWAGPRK
T1 sequence (O88944 whole entry): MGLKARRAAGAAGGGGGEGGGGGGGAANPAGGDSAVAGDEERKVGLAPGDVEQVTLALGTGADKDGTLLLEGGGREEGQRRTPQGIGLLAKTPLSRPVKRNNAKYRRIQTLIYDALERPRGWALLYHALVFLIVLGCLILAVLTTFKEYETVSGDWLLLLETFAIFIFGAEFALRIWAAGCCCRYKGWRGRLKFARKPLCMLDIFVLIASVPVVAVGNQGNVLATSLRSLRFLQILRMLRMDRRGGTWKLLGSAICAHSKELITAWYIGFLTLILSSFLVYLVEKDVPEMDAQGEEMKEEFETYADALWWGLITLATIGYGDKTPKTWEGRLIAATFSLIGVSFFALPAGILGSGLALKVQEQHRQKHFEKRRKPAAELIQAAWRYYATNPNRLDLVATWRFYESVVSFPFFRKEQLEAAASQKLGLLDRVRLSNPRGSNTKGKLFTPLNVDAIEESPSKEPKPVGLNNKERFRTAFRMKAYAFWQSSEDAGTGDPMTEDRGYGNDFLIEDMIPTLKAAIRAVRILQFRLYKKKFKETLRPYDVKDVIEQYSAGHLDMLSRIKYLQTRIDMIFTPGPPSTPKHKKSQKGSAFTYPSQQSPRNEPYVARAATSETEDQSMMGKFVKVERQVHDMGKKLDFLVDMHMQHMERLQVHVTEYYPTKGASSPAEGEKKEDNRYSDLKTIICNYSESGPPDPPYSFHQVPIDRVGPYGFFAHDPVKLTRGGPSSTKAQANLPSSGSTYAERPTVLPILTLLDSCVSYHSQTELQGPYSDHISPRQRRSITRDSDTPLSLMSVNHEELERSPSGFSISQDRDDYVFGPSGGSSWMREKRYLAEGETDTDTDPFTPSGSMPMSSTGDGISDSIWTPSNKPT

IC50 [1]: 1.21 µM
SMILES: CC(C)NCC(O)COc1ccc(COCCOC(C)C)cc1 (racemic) [BIS, 1-(propan-2-ylamino)-3-[4-(2-propan-2-yloxyethoxymethyl)phenoxy]propan-2-ol]
IC50 [2]: 6.42 µM
